{
  "source": "patent US10597388B2",
  "about": "“Pyridazinone herbicides” (FMC CORPORATION, priority 2014, dated 2020)",
  "type_in_all_cases": "in vivo",
  "key": {"[1]": {"tested_on": "ALOMY, blackgrass (Alopecurus myosuroides)", "assay": "Test F mixtures with commercial herbicides, Post- or Pre-emergence", "conditions": "Table F3, Post-emergence, scale 0-100", "method": "(§1) This test evaluated the effect of mixtures of Compound 1 or Compound 2 with various commercial herbicides on multiple plant species. Seeds of multiple plant species selected were planted into Sandy Loam soil and treated either Post-emergence or Pre-emergence with test chemicals formulated in a non-phytotoxic solvent mixture. Plants were grown in a greenhouse using supplemental lighting to maintain a photoperiod of approximately 16 h; daytime and nighttime temperatures were approximately 24-30 and 19-21° C., respectively. Balanced fertilizer was applied through the watering system. Treated plants and controls were maintained in a greenhouse for 20 d, after which time all species were compared to controls and visually evaluated. Plant response ratings summarized in Tables F1 through F4 and are based on a scale of 0 to 100 where 0 is no effect and 100 is complete control. A dash (-) response means no test result. Application rates (i.e. “Rate”) are expressed in grams of active ingredient per hectare (g a.i./ha). In the following tables KCHSC is kochia (Kochia scoparia), LOLMU in Italian Ryegrass (Lolium multiflorum), AMBEL is common ragweed (Ambrosia elatior), ECHCG is barnyardgrass (Echinochloa crus-galli), SETVI is giant foxtail (Setaria faberii), AMARE is redroot pigweed (Amaranthus retroflexus), ALOMY is blackgrass (Alopecurus myosuroides) and GALAP is galium (Galium aparine). “Obsd.” is observed effect. “Exp.” is expected effect calculated from Colby's Equation.\n(§2) Colby's Equation was used to determine the herbicidal effects expected from the mixtures. Colby's Equation (Colby, S. R. “Calculating Synergistic and Antagonistic Responses of Herbicide Combinations,” Weeds, 15(1), pp 20-22 (1967)) calculates the expected additive effect of herbicidal mixtures, and for two active ingredients is of the form: Pa+b=Pa+Pb−(PaPb/100)\n(§3) wherein Pa+b is the percentage effect of the mixture expected from additive contribution of the individual components:\n(§4) Pa is the observed percentage effect of the first active ingredient at the same use rate as in the mixture, and\n(§5) Pb is the observed percentage effect of the second active ingredient at the same use rate as in the mixture."}, "[2]": {"tested_on": "AMARE, redroot pigweed (Amaranthus retroflexus)", "assay": "Test F mixtures with commercial herbicides, Post- or Pre-emergence", "conditions": "scale 0-100", "method": "as §1, §2, §3, §4, §5"}, "[3]": {"tested_on": "AMBEL, common ragweed (Ambrosia elatior)", "assay": "Test F mixtures with commercial herbicides, Post- or Pre-emergence", "conditions": "scale 0-100", "method": "as §1, §2, §3, §4, §5"}, "[4]": {"tested_on": "ECHCG, barnyardgrass (Echinochloa crus-galli)", "assay": "Test F mixtures with commercial herbicides, Post- or Pre-emergence", "conditions": "scale 0-100", "method": "as §1, §2, §3, §4, §5"}, "[5]": {"tested_on": "GALAP, galium (Galium aparine)", "assay": "Test F mixtures with commercial herbicides, Post- or Pre-emergence", "conditions": "Table F3, Post-emergence, scale 0-100", "method": "as §1, §2, §3, §4, §5"}, "[6]": {"tested_on": "KCHSC, kochia (Kochia scoparia)", "assay": "Test F mixtures with commercial herbicides, Post- or Pre-emergence", "conditions": "scale 0-100", "method": "as §1, §2, §3, §4, §5"}, "[7]": {"tested_on": "LOLMU, Italian Ryegrass (Lolium multiflorum)", "assay": "Test F mixtures with commercial herbicides, Post- or Pre-emergence", "conditions": "scale 0-100", "method": "as §1, §2, §3, §4, §5"}, "[8]": {"tested_on": "SETVI, giant foxtail (Setaria faberii)", "assay": "Test F mixtures with commercial herbicides, Post- or Pre-emergence", "conditions": "scale 0-100", "method": "as §1, §2, §3, §4, §5"}, "[9]": {"tested_on": "Canada thistle (Cirsium arvense)", "assay": "Test D controlled growth environment herbicide test, pre- and postemergence", "summary_of_the_method": "(§6)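 Rating is visual, 0–100 scale (100 = complete control), made against untreated plants 14–21 d after treatment in controlled growth conditions. Postemergence sprays went onto 1- to 4-leaf plants in peat medium; preemergence sprays onto silt loam after sowing; formulation included a surfactant.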"}, "[10]": {"tested_on": "geranium, cutleaf (cutleaf geranium, Geranium dissectum)", "assay": "Test D controlled growth environment herbicide test, pre- and postemergence", "summary_of_the_method": "as §6"}, "[11]": {"conditions": "Pre-emergence, Rate 16 g a.i./ha"}, "[12]": {"conditions": "Pre-emergence, Rate 62 g a.i./ha"}, "[13]": {"conditions": "Table F3, Post-emergence, Rate 16 g a.i./ha"}, "[14]": {"conditions": "Table F3, Post-emergence, Rate 62 g a.i./ha"}, "[15]": {"conditions": "Postemergence, 31 g ai/ha, scale 0 to 100 (0 no effect, 100 complete control)"}, "[16]": {"conditions": "Postemergence, 125 g ai/ha, visual rating on scale 0 (no effect) to 100 (complete control), 14 to 21 d"}, "[17]": {"conditions": "Postemergence, 250 g ai/ha, scale 0 to 100 (0 no effect, 100 complete control)"}, "[18]": {"conditions": "Preemergence, 125 g ai/ha, scale 0 to 100 (0 no effect, 100 complete control)"}, "[19]": {"conditions": "Preemergence, 250 g ai/ha, scale 0 to 100, 0 no effect, 100 complete control"}, "[20]": {"conditions": "postemergence, 62 g ai/ha, scale 0 to 100, 0 no effect, 100 complete control"}},
  "data": [
    {"molecule": "Cc1cc(C)c2sc(C)c(-c3c(O)c(C)nn(C)c3=O)c2c1", "note": "[Compound 2, 5-hydroxy-2,6-dimethyl-4-(2,5,7-trimethylbenzo[b]thien-3-yl)-3(2H)-pyridazinone]", "values": [
      {"measurement": "ALOMY Obsd.", "setting": "[1]; Rate 16 g a.i./ha", "result": 20},
      {"measurement": "ALOMY Obsd.", "setting": "[1]; Rate 62 g a.i./ha", "result": 60},
      {"measurement": "AMARE Obsd.", "setting": "[2]; [11]", "result": 25},
      {"measurement": "AMARE Obsd.", "setting": "[2]; [12]", "result": 75},
      {"measurement": "AMARE Obsd.", "setting": "[2]; [13]", "result": 25},
      {"measurement": "AMARE Obsd.", "setting": "[2]; [14]", "result": 80},
      {"measurement": "AMBEL Obsd.", "setting": "[3]; [11]", "result": 30},
      {"measurement": "AMBEL Obsd.", "setting": "[3]; [12]", "result": 95},
      {"measurement": "AMBEL Obsd.", "setting": "[3]; [13]", "result": 40},
      {"measurement": "AMBEL Obsd.", "setting": "[3]; [14]", "result": 80},
      {"measurement": "ECHCG Obsd.", "setting": "[4]; [11]", "result": 0},
      {"measurement": "ECHCG Obsd.", "setting": "[4]; [12]", "result": 25},
      {"measurement": "ECHCG Obsd.", "setting": "[4]; [13]", "result": 5},
      {"measurement": "ECHCG Obsd.", "setting": "[4]; [14]", "result": 20},
      {"measurement": "GALAP Obsd.", "setting": "[5]; Rate 16 g a.i./ha", "result": 100},
      {"measurement": "GALAP Obsd.", "setting": "[5]; Rate 62 g a.i./ha", "result": 100},
      {"measurement": "KCHSC Obsd.", "setting": "[6]; [11]", "result": 0},
      {"measurement": "KCHSC Obsd.", "setting": "[6]; [12]", "result": 0},
      {"measurement": "KCHSC Obsd.", "setting": "[6]; [13]", "result": 50},
      {"measurement": "KCHSC Obsd.", "setting": "[6]; [14]", "result": 75},
      {"measurement": "LOLMU Obsd.", "setting": "[7]; [11]", "result": 0},
      {"measurement": "LOLMU Obsd.", "setting": "[7]; [12]", "result": 50},
      {"measurement": "LOLMU Obsd.", "setting": "[7]; [13]", "result": 75},
      {"measurement": "LOLMU Obsd.", "setting": "[7]; [14]", "result": 95},
      {"measurement": "SETVI Obsd.", "setting": "[8]; [11]", "result": 60},
      {"measurement": "SETVI Obsd.", "setting": "[8]; [12]", "result": 98},
      {"measurement": "SETVI Obsd.", "setting": "[8]; [13]", "result": 15},
      {"measurement": "SETVI Obsd.", "setting": "[8]; [14]", "result": 80}
    ]},
    {"molecule": "Cc1nn(C)c(=O)c(-c2cccc3ccc(Br)cc23)c1O", "note": "[Compound 126]", "values": [
      {"measurement": "Canada Thistle plant response rating", "setting": "[9]; [15]", "result": 98},
      {"measurement": "Plant response rating, Canada Thistle", "setting": "[9]; [16]", "result": 98},
      {"measurement": "Plant response rating, Canada Thistle", "setting": "[9]; [17]", "result": 100},
      {"measurement": "Plant response rating (scale of 0 to 100), Canada Thistle", "setting": "[9]; Preemergence, 31 g ai/ha", "result": 0},
      {"measurement": "Plant response rating, Canada Thistle", "setting": "[9]; Preemergence, 62 g ai/ha, scale 0 to 100 (0 no effect, 100 complete control)", "result": 15},
      {"measurement": "Plant response rating, Canada Thistle", "setting": "[9]; [18]", "result": 95},
      {"measurement": "Plant response rating, Canada Thistle", "setting": "[9]; [19]", "result": 95},
      {"measurement": "Plant response rating, Canada Thistle", "setting": "[9]; [20]", "result": 100},
      {"measurement": "Geranium, Cutleaf plant response rating", "setting": "[10]; [15]", "result": 30},
      {"measurement": "Plant response rating, Geranium, Cutleaf", "setting": "[10]; [16]", "result": 80},
      {"measurement": "Plant response rating, Geranium, Cutleaf", "setting": "[10]; [17]", "result": 90},
      {"measurement": "Plant response rating (scale of 0 to 100), Geranium, Cutleaf", "setting": "[10]; Preemergence, 31 g ai/ha", "result": 0},
      {"measurement": "Plant response rating (scale of 0 to 100), Geranium, Cutleaf", "setting": "[10]; Preemergence, 62 g ai/ha", "result": 0},
      {"measurement": "Plant response rating, Geranium, Cutleaf", "setting": "[10]; [18]", "result": 0},
      {"measurement": "Plant response rating, Geranium, Cutleaf", "setting": "[10]; [19]", "result": 15},
      {"measurement": "Plant response rating, Geranium, Cutleaf", "setting": "[10]; [20]", "result": 40}
    ]}
  ]
}
